Entries after “also recorded” stand apart in the source; their conditions may differ. Where no end group is shown, it is not given here. allenamide 1a = not defined here
Experiments:
[1] = biological target: T1, BSA (Bos taurus, UniProt P02769); assay: Labelling BSA with 6-8, SDS-PAGE analysis; assay type: biochemical, bovine; conditions: 10 nmol label, 1 nmol BSA, Tris-HCl pH 7.4, 37° C., 30 min
T1 construct: purchased
Method: 0.1 μmol/mL solution of BSA in H2O (10 μL, 1 nmol), 1.0 μmol/mL solution of 6, 7 and 8 in H2O (10 μL each, 10 nmol) and 80 μL of Tris-HCl buffer (pH 7.4) were mixed in 1 mL eppendorf tubes and incubated at 37° C. for 30 min.

[2] = system: peptide 5 (YDSQCFHRW); assay: Modification of cysteine in peptide 5 using allenamides 1b-d; assay type: biochemical; conditions: peptide sequence YDSQCFHRW; as determined by LCMS
Method: After pipette mixing, reaction mixture was allowed to stand at room temperature for 10-20 minutes. […] Site selectivity was established by LC-MS/MS.

[3] = biological target: TEM1 β-Lactamase (Bla) (Escherichia coli, UniProt P62593); assay: Labelling TEM1 β-lactamase with 7, SDS-PAGE analysis; assay type: biochemical, bacterial; conditions: Tris-HCl pH 7.4, 37° C., 30 min
Method: For TEM1 β-Lactamase, 0.1 μmol/mL solution of β-Lactamase in H2O (10 μL, 1 nmol), 1.0 μmol/mL solution of 7 in H2O (10 μL, 10 nmol) and 80 μL of Tris-HCl buffer (pH 7.4) were mixed in a 1 mL eppendorf tube and incubated at 37° C. for 30 min. After due time, reaction mixture was subjected to SDS-PAGE analysis which confirmed no labelling. In second part of this experiment, 0.1 μmol/mL solution of β-Lactamase (1 mL) was heated with 1.0 μmol/mL solution of DTT (1 mL) at 80° C. for 10 min. After cooling down to room temperature, a 10 μL aliquot of this mixture was mixed with 10 μL of 7 (2.0 μmol/mL in H2O) and 80 μL of Tris-HCl buffer (pH 7.4) and incubated at 37° C. for 30 min.

[4] = Irreversibility of the conjugation products against excess thiol (LCMS); assay type: physicochemical; conditions: excess (100 equivalent) glutathione, overnight at 37° C.
Method: (§1) The irreversibility of the conjugation product was tested with peptide 5 and GSH (2). No reversion to starting material 5 was observed when the conjugation product of 5 and 1a was incubated with excess (100 equivalent) glutathione for overnight at 37° C. […] The irreversibility of specific cysteine labelling may thus enable the possibility for the protein modification in intracellular environment.

[5] = Reaction of allenamide 1a with cysteine methyl ester (free thiol and amino groups)
Method: […] Reaction mixture was stirred for 30 minutes after which TLC confirmed the complete consumption of 1a. THF was evaporated on rotary evaporator and product was extracted two times in dichloromethane (2.5 mL each). Solvent was evaporated and product was purified by column chromatography (5% MeOH in dichloromethane) to get 32.8 mg (76% yield) of white solid (modified cysteine).

[6] = Reaction of 1a with lysine, serine and methionine under similar conditions; conditions: similar conditions as for cysteine methyl ester
[7] = system: glutathione (GSH; 2); assay: Modification of glutathione (2) using allenamide 1a; assay type: biochemical
Method: 6.5 mg glutathione (0.021 mmol) was dissolved in 0.5 mL ammonium carbonate buffer (pH 8.0) in a 4 mL glass vial. To this solution was added 7.3 mg of allenamide 1a (0.042 mmol; 2 eq.) in 0.5 mL THF and resulting solution was mixed well using a pipette. […] This mixture was centrifuged at 8000 rpm for 5 min. Liquid was carefully decanted and the solid precipitated was washed two times with THF. The precipitate after final washing was dried in vacuum to give 9.9 mg (97% yield) of white solid (modified glutathione).

[8] = system: peptides CGKSRF (3), KSCGRF (4) and YDSQCFHRW (5); assay: Modification of peptides 3, 4 and 5 with allenamide 1a; assay type: biochemical
Method: 100 μL of the peptide solution (250 μM in ammonium carbonate buffer of pH 8.0) was mixed with an equal amount of the solution of 1a (2.5 mM in ammonium carbonate buffer containing 5% THF). After pipette mixing, reaction mixture was allowed to stand at room temperature for 10-20 minutes. […] Site selectivity was established by LC-MS/MS.
as §1

[9] = biological target: T2, bovine insulin (reduced chain A and chain B) (Bos taurus, UniProt P01317); assay: Modification of DTT-reduced bovine insulin using 1a; assay type: biochemical
T2 construct: purchased
Method: After promising results in simple peptides, similar modification of cysteine residue in more complicated peptide sequences was also examined. A more complex pair of peptides generated from the DTT treatment of bovine insulin was tested (FIG. 10).
10 equivalents of solid DTT was added to 2 ml of a 10 mM solution of bovine insulin in 50 mM ammonium carbonate buffer of pH 8. The mixture after pipette mixing was allowed to stand at 70° C. under nitrogen atmosphere for 10 minutes. LCMS was done after due time and cooling to room temperature to confirm complete reduction of disulfide bonds. […] Similarly the m/Z values corresponding to chain A were obtained as 779, 1169 and 2338 corresponding to +3, +2 and +1 charge on chain A (molecular weight 2337.97). To 1 ml of the reduced insulin mixture was added 25 equivalents of 1a dissolved in 500 μL of THF and reaction mixture was allowed to stand at room temperature for 30 min. after pipette mixing. […] Thus, the expected molecular weight of modified chain B was 3743.67 (3397.67+346) and that of chain A was 3029.97 (2337.97+692) and the observed m/z values for modified chain B were at 750, 937, 1249 and 1873 corresponding to +5, +4, +3 and +2 charge and for chain A were at 1011 and 1515 corresponding to +3 and +2 charge on the chain. The site selectivity was further confirmed by MS/MS (FIGS. 11 and 12, respectively).

[10] = biological target: T3, BSA (Bovine Serum Albumin) (Bos taurus, UniProt P02769); assay: Modification (alkylation) of BSA with compound 1a, trypsin digestion and LC-MS/MS; assay type: biochemical; conditions: DTT-reduced BSA, 30 min at 37° C., pH 8.0
T3 construct: purchased
Method: 6.6 mg of BSA (0.1 μmol) was dissolved in 1 ml of ammonium carbonate buffer (pH 8.0). To this was added 2.3 mg solid DTT (15 μmol) and after pipette mixing resulting mixture was incubated over night at 37° C. 3.7 mg of 1a (21 μmol) dissolved in 1 ml of ammonium carbonate buffer (5% THF) was then added to it and incubated again for 30 min at 37° C. After due time, protein was purified through nano-separation filtration. The purified protein was subjected to trypsin digestion and LC-MS/MS using standard protocols (FIG. 13).

Chain of TEM1 β-Lactamase (Bla) (P62593 24-286 limits assumed): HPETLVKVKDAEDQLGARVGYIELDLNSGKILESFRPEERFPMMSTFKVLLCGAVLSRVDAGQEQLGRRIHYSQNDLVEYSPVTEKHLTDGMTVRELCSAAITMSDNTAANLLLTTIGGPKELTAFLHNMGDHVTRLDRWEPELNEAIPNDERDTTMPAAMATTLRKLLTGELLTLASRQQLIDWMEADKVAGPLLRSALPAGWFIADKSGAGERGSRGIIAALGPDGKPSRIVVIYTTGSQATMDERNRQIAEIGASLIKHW
T2 sequence (P01317 25-54 limits assumed): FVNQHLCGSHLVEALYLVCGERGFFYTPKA
T2 sequence (P01317 85-105 limits assumed): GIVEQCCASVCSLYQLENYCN
T1 sequence (P02769 25-607): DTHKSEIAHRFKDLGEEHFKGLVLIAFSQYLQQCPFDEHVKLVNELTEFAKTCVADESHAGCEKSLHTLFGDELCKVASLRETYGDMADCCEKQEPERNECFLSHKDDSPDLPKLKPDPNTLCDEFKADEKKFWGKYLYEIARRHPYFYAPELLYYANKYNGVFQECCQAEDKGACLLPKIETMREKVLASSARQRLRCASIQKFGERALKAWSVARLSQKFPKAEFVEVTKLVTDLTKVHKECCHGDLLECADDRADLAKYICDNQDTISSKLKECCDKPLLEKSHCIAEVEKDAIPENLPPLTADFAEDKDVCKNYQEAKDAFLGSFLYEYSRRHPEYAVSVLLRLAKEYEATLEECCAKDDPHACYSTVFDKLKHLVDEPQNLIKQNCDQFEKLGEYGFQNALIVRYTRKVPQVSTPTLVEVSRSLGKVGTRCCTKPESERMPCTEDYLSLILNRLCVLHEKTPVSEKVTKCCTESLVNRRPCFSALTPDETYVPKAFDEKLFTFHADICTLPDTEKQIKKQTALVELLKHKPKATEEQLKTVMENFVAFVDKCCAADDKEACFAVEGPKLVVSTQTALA
T3 sequence (P02769 25-607): as above

## C=C=CC(=O)NCCNC(=S)Nc1ccc2c(c1)C(=O)OC21c2ccc(O)cc2Oc2cc(O)ccc21 (single isomer, unassigned) [Compound 6]
[1]
  Labelling of BSA (SDS-PAGE): labelling to have taken place successfully

## C=C=CC(=O)Nc1cccc2ccccc12 [Allenamide 1d, N-(naphthalene-1-yl)buta-2,3-dienamide]
[2]
  Conversion: Quantitative

## C=C=CC(=O)NCCNC(=O)CCCCC[N+]1=C(/C=C/C=C2/N(C)c3ccccc3C2(C)C)C(C)(C)c2ccccc21.[Cl-] [Compound 7]
[1]
  Labelling of BSA (SDS-PAGE): labelling to have taken place successfully
[3]; DTT at 80° C. for 10 min before
  Labelling of β-Lactamase after DTT treatment (SDS-PAGE): successful labelling; also recorded: successful labeling was observed
[3]; no free cysteine
  Labelling of β-Lactamase without DTT treatment (SDS-PAGE): no labelling; also recorded: no labeling was observed

## conjugation product of 5 and 1a: peptide YDSQCFHRW (5) modified at cysteine with allenamide 1a (YDSQC(allenamide 1a)FHRW-OH; not fully specified; reading uncertain)
[4]
  Reversion of conjugation product to starting material 5: No reversion

## C=C=CC(=O)NCC(=O)OCC [Allenamide 1b, ethyl 2-(buta-2,3-dienamido)acetate]
[2]
  Conversion: Quantitative

## C=C=CC(=O)NCc1ccccc1 [Allenamide 1a, N-benzylbuta-2,3-dienamide]
[5]; even when 1a was used in excess
  Reaction at the free amino group of cysteine methyl ester: No reaction
[5]; gives product 1aa
  Group of cysteine methyl ester involved in the reaction: Only the free thiol group
[6]
  Product formation with lysine, serine and methionine: no product was obtained
[7]; 2 eq. 1a, ammonium carbonate buffer pH 8.0/THF, after 15 min
  Conversion of glutathione (LCMS): complete conversion
[7]; cysteine thiol versus amino groups
  Site of modification in glutathione (NMR, LC-MS/MS): modification at the cysteine residue
[8]
  Site of modification in peptides 3, 4 and 5 (LCMS and LC-MS/MS): selectively at cysteine
[8]; 250 μM peptide, 2.5 mM 1a, pH 8.0, room temperature, 10-20 minutes
  Conversion of peptides 3, 4 and 5 (LCMS): quantitative conversion
[8]; even after standing overnight
  Reaction of other amino acid residues (histidine, lysine, tyrosine and other reactive side chains) with 1a: did not give any reaction
[9]; 25 equivalents of 1a, room temperature, 30 min
  Modification of reduced insulin chains (LCMS): expected modification
[9]; chain A, from molecular weight increment 692
  Molecules of allenamide included in chain A: four molecules
[9]; chain B, from molecular weight increment 346
  Molecules of allenamide included in chain B: two molecules
[10]
  Modification of cysteine residues of BSA (LC-MS/MS of tryptic peptides): All cysteine residues in the detected peptides were found to be modified

## C=C=CC(=O)NC1CCCCC1 [Allenamide 1c, N-cyclohexylbuta-2,3-dienamide]
[2]
  Conversion: Quantitative
